Results: patent publication US8513161B2, “Enhancement of plant growth” (Valent Biosciences Corporation, priority 2007, dated 2013)
Structures can show the parent of a compound that is named as a salt.

Experiments:
cotton [1] = assay: Pouch assay of cotton after PESA salt and clothianidin seed treatments; format: in vivo; conditions: seed treatment; for shoot length of cotton: control 3.7; for root length of cotton: control 9.6
Protocol: (§1) Seed was sieved with a screen of hole size appropriate to remove broken seeds and small trash. Cracked or otherwise damaged seeds were removed. The seed was well mixed, and 50 g samples were weighed into small plastic trays. Seed treatment slurries were made by adding measured amounts of the active ingredients to sufficient water to bring them up to a standard volume, typically 2 ml. A fungicide (Maxim XL; Syngenta Agricultural Products, Greensboro, N.C.), a polymeric binder (CF-Clear; Becker-Underwood, Ames, Iowa), and a colorant (Color Coat Red; Becker-Underwood, Ames, Iowa) were also included in the slurry at label rates. A small aliquot of this slurry was applied to the seed using the Hege 11 coater (Wintersteiger, Salt Lake City, Utah) with a six-inch bowl. The slurry was deposited drop-wise on the spinning disk atomizer using a syringe.
(§2) Seeds were placed in germination pouches consisting of germination paper hydrated with sterile water that was an insert in a gas-permeable 16×14 cm plastic pouch (CYG Pouch; Mega International, St. Paul, Minn.). In these examples, in pouch solution evaluation, clothianidin and PESA sodium salt were added to the sterile water in the pouch. Alternatively, imidacloprid or dinotefuran and PESA sodium salt were added to the sterile water in the pouch. The pouches were arranged in a completely randomized block design in growth racks and placed in 19-liter polycarbonate food storage containers (Rubbermaid Commercial Products, Winchester, Va.). The sealed containers were held in an upright growth cabinet maintained at 25 C with a 12 hour light: 12 hour dark photoperiod. After 6 days, the containers were removed from the growth cabinet, and the lengths of the roots and shoot were measured.

cotton [2] = assay: Continuous exposure pouch study, PESA salt and clothianidin on cotton; format: in vivo; conditions: for shoot length of cotton / root length of cotton: in pouch; for shoot length of cotton: control 6.1; for root length of cotton: control 11.4
Protocol: as §2

cotton [3] = assay: Continuous exposure pouch study, PESA salt and imidacloprid on cotton; format: in vivo; conditions: for shoot length of cotton / root length of cotton: in pouch; for shoot length of cotton: control 6.2; for root length of cotton: control 13.3
Protocol: as §2, with “measured. […] Root lengths of the control and combination treatment of imidacloprid with 100 mg/liter PESA salt were similar.” for “measured.”

rice = assay: Pouch study of rice, imidacloprid seed treatment with PESA salt solution in pouch; format: in vivo
Protocol: as §1, §2
Root lengths of the control and combination treatment of 200 grams imidacloprid/100 pounds of seed with 50 mg/liter PESA salt were similar.

soybean = assay: Field study, seed treatment of soybean; format: in vivo; conditions: for average plant height of soybean: 66 days after planting, control 23.8
Protocol: (§3) For the field studies, the seed was treated with a seed treatment formulation containing clothianidin. The rate of clothianidin was dependent on the crop species. The seed treatment formulations were amended with the appropriate concentrations of either PESA or the sodium salt of PESA. Crops were planted and grown under standard agricultural practices, and evaluated at the times indicated. The sodium salt of PESA was prepared as described above, and was used in seed treatment either alone or in the presence of clothianidin. Soybean seed was treated with 0 or 50 grams of clothianidin/100 kg (220 pound) of seed and with 0, 22, 55, or 137.5 grams PESA salt/100 kg seed.

canola = assay: Field study, seed treatment of canola; format: in vivo, Brassica napus; conditions: for vigor rating (1 = low and 5 = high) of canola plants: 19 days after planting, control 3.8
Protocol: as §3, with “Canola (Brassica napus)” for “Soybean”, “400” for “50”

maize = assay: Field study, seed treatment of maize; format: in vivo, Zea mays; conditions: 27 days after planting, control 3.6
Protocol: For the field studies, the seed was treated with a seed treatment formulation containing clothianidin. The rate of clothianidin was dependent on the crop species. The seed treatment formulations were amended with the appropriate concentrations of either PESA or the sodium salt of PESA. Crops were planted and grown under standard agricultural practices, and evaluated at the times indicated. The PESA or the sodium salt of PESA was prepared as described above, and was used in seed treatment either alone or in the presence of clothianidin. Maize (Zea mays) seed was treated with 0 or 0.25 milligrams of clothianidin/seed and with 0, 22, 55, or 137.5 grams PESA salt/100 kg seed.

[4] = PESA salt 10 g/100 pounds of seed alone
[5] = PESA salt 25 g/100 pounds of seed alone
[6] = sodium salt of PESA 22 g/100 kg seed alone
[7] = sodium salt of PESA 55 g/100 kg seed alone
[8] = sodium salt of PESA 137.5 g/100 kg seed alone

## O=C(O)CCC(=O)NCCc1ccccc1 [PESA salt]
Cotton [1]; Table 2
  effect on cotton shoot length: increased cotton shoot length
Cotton [1]; conclusion from Table 1
  safening of cotton: safened cotton against clothianidin-induced root growth inhibition
Cotton [1]; [4]
  shoot length of cotton: 4.3 cm
  root length of cotton: 8.8 cm
Cotton [1]; [5]
  shoot length of cotton: 4.3 cm
  root length of cotton: 10.6 cm
Cotton [2]; continuous exposure pouch, conclusion from Table 3
  safening of cotton: safened cotton against clothianidin-induced root growth inhibition
Cotton [2]; continuous exposure pouch, substance alone
  effect on cotton root length: increased root length in a dose-dependent manner
Cotton [2]; continuous exposure pouch, 300 mg/liter PESA salt alone
  effect on cotton shoot length: reduced
Cotton [2]; PESA salt 10 mg/liter alone
  shoot length of cotton: 6.3 cm
  root length of cotton: 14.2 cm
Cotton [2]; PESA salt 30 mg/liter alone
  shoot length of cotton: 6.1 cm
  root length of cotton: 15.3 cm
Cotton [2]; PESA salt 100 mg/liter alone
  shoot length of cotton: 6.0 cm
  root length of cotton: 16.2 cm
Cotton [2]; PESA salt 300 mg/liter alone
  shoot length of cotton: 5.4 cm
Cotton [3]; conclusion from Table 5
  safening of cotton: safened cotton against imidacloprid-induced root growth inhibition
Cotton [3]; PESA salt 10 mg/liter alone
  shoot length of cotton: 6.2 cm
  root length of cotton: 14.6 cm
Cotton [3]; PESA salt 30 mg/liter alone
  shoot length of cotton: 6.0 cm
  root length of cotton: 16.9 cm
Cotton [3]; PESA salt 100 mg/liter alone
  shoot length of cotton: 6.0 cm
  root length of cotton: 16.5 cm
Cotton [3]; PESA salt 300 mg/liter alone
  shoot length of cotton: 5.7 cm
  root length of cotton: 11.9 cm
rice; PESA salt 50 mg/liter in pouch alone, control 3.3
  shoot length of rice: 3.6 cm
rice; PESA salt 50 mg/liter in pouch alone, control 10.7
  root length of rice: 12.0 cm
rice; conclusion from Table 7
  safening of rice: safened, rice against imidacloprid-induced root growth inhibition
soybean; [6]
  average plant height of soybean: 23.8 inches
soybean; [7]
  average plant height of soybean: 23.5 inches
soybean; [8]
  average plant height of soybean: 23.2 inches
soybean; conclusion from Table 9
  safening of soybean: safened soybean against clothianidin-induced root growth inhibition
canola; [6]
  vigor rating (1 = low and 5 = high) of canola plants: 3.8
canola; [7]
  vigor rating (1 = low and 5 = high) of canola plants: 4
canola; [8]
  vigor rating (1 = low and 5 = high) of canola plants: 4
canola; conclusion from Table 11
  safening of canola: safened canola against clothianidin-induced vigor reduction
maize; PESA sodium salt 22 g/100 kg seed alone
  vigor rating of maize plants, Vigor (1-5): 3.8
maize; PESA sodium salt 55 g/100 kg seed alone
  vigor rating of maize plants, Vigor (1-5): 3.5
maize; PESA sodium salt 137.5 g/100 kg seed alone
  vigor rating of maize plants, Vigor (1-5): 3.4
